Assay results published in the NIST ThermoML archive (doi:10.1016/j.fluid.2018.09.026).
Where “and” joins values, the source holds several entries; their conditions need not be identical. Equal values may be shown once. Numbers after ± are expanded uncertainties.

Settings: Liquid; for viscosity: Vibrating wire viscometry; for mass density: Vibrating tube method

In the case of OCCOCCOCCO [triethylene glycol], the viscosity (343.08 K, 67540 kPa) is reported as 10.64 ± 0.47 mPa·s, the viscosity (343.08 K, 67870 kPa) is reported as 10.63 ± 0.49 mPa·s and the mass density (343.15 K, 100 kPa) is reported as 1083.9 ± 4.3 kg/m3. For the same compound, the mass density (343.15 K, 640 kPa) was 1084.2 ± 4.3 kg/m3, the mass density (343.15 K, 1120 kPa) was 1084.4 ± 4.3 kg/m3 and the mass density (343.15 K, 1600 kPa) was 1084.7 ± 4.3 kg/m3. For the same compound, the mass density (343.15 K, 2110 kPa) was 1084.9 ± 4.4 kg/m3, the mass density (343.15 K, 3040 kPa) was 1085.5 ± 4.4 kg/m3 and the mass density (343.15 K, 5040 kPa) was 1086.6 ± 4.4 kg/m3. It also gave a mass density (343.15 K, 6960 kPa) of 1087.5 ± 4.4 kg/m3, a mass density (343.15 K, 9920 kPa) of 1089 ± 4.4 kg/m3 and a mass density (343.15 K, 14810 kPa) of 1091.6 ± 4.4 kg/m3. For the same compound, the mass density (343.15 K, 19680 kPa) was 1093.9 ± 4.4 kg/m3, the mass density (343.15 K, 24620 kPa) was 1096.4 ± 4.4 kg/m3 and the mass density (343.15 K, 29580 kPa) was 1098.7 ± 4.4 kg/m3. It also gave a mass density (343.15 K, 34460 kPa) of 1101 ± 4.4 kg/m3, a mass density (343.15 K, 39370 kPa) of 1103.3 ± 4.4 kg/m3 and a mass density (343.15 K, 44240 kPa) of 1105.4 ± 4.4 kg/m3. The mass density (343.15 K, 49160 kPa) was 1107.6 ± 4.5 kg/m3, the mass density (343.15 K, 54020 kPa) was 1109.7 ± 4.5 kg/m3 and the mass density (343.15 K, 58940 kPa) was 1111.7 ± 4.5 kg/m3. For the same compound, the mass density (343.15 K, 63890 kPa) was 1113.8 ± 4.5 kg/m3, the mass density (343.15 K, 68680 kPa) was 1115.7 ± 4.5 kg/m3 and the mass density (353.15 K, 100 kPa) was 1076 ± 4.3 kg/m3. The mass density (353.15 K, 650 kPa) was 1076.3 ± 4.3 kg/m3, the mass density (353.15 K, 1100 kPa) was 1076.5 ± 4.3 kg/m3 and the mass density (353.15 K, 1550 kPa) was 1076.7 ± 4.3 kg/m3. The mass density (353.15 K, 2100 kPa) was 1077.1 ± 4.3 kg/m3, the mass density (353.15 K, 3050 kPa) was 1077.6 ± 4.3 kg/m3 and the mass density (353.15 K, 5040 kPa) was 1078.6 ± 4.3 kg/m3. For the same compound, the mass density (353.15 K, 7010 kPa) was 1079.8 ± 4.3 kg/m3, the mass density (353.15 K, 9960 kPa) was 1081.3 ± 4.3 kg/m3 and the mass density (353.15 K, 14810 kPa) was 1084 ± 4.3 kg/m3. The mass density (353.15 K, 19780 kPa) was 1086.5 ± 4.4 kg/m3, the mass density (353.15 K, 24610 kPa) was 1089 ± 4.4 kg/m3 and the mass density (353.15 K, 29560 kPa) was 1091.9 ± 4.4 kg/m3. It also gave a mass density (353.15 K, 34450 kPa) of 1093.8 ± 4.4 kg/m3, a mass density (353.15 K, 39370 kPa) of 1096.1 ± 4.4 kg/m3 and a mass density (353.15 K, 44270 kPa) of 1098.4 ± 4.4 kg/m3. For the same compound, the mass density (353.15 K, 49200 kPa) was 1100.6 ± 4.4 kg/m3, the mass density (353.15 K, 54090 kPa) was 1102.8 ± 4.4 kg/m3 and the mass density (353.15 K, 59010 kPa) was 1104.9 ± 4.4 kg/m3. The mass density (353.15 K, 63820 kPa) was 1107 ± 4.5 kg/m3, the mass density (353.15 K, 68800 kPa) was 1109 ± 4.5 kg/m3 and the viscosity (362.88 K, 190 kPa) was 4.247 ± 0.17 mPa·s [middle of 7 runs]. For the same compound, the viscosity (362.88 K, 1270 kPa) was 4.27 ± 0.17 mPa·s [middle of 8 runs], the viscosity (362.88 K, 1990 kPa) was 4.308 ± 0.17 mPa·s and 4.283 ± 0.17 mPa·s and 4.311 ± 0.18 mPa·s and the viscosity (362.88 K, 2000 kPa) was 4.292 ± 0.17 mPa·s [middle of 5 runs]. The viscosity (362.88 K, 4990 kPa) was 4.388 ± 0.18 mPa·s [middle of 4 runs], the viscosity (362.88 K, 5000 kPa) was 4.396 ± 0.18 mPa·s and 4.394 ± 0.18 mPa·s and 4.386 ± 0.18 mPa·s and the viscosity (362.88 K, 10010 kPa) was 4.54 ± 0.18 mPa·s and 4.522 ± 0.18 mPa·s and 4.512 ± 0.18 mPa·s. For the same compound, the viscosity (362.88 K, 10020 kPa) was 4.524 ± 0.18 mPa·s [middle of 4 runs], the viscosity (362.88 K, 19820 kPa) was 4.812 ± 0.2 mPa·s and the viscosity (362.88 K, 19830 kPa) was 4.792 ± 0.2 mPa·s and 4.786 ± 0.2 mPa·s and 4.794 ± 0.2 mPa·s. The viscosity (362.88 K, 19840 kPa) was 4.789 ± 0.2 mPa·s, the viscosity (362.88 K, 29760 kPa) was 5.092 ± 0.21 mPa·s and the viscosity (362.88 K, 29770 kPa) was 5.089 ± 0.21 mPa·s. For the same compound, the viscosity (362.88 K, 29780 kPa) was 5.088 ± 0.21 mPa·s, the viscosity (362.88 K, 29790 kPa) was 5.109 ± 0.21 mPa·s and the viscosity (362.88 K, 39030 kPa) was 5.381 ± 0.22 mPa·s. For the same compound, the viscosity (362.88 K, 39050 kPa) was 5.39 ± 0.22 mPa·s, the viscosity (362.88 K, 39060 kPa) was 5.382 ± 0.22 mPa·s and the viscosity (362.88 K, 39070 kPa) was 5.395 ± 0.22 mPa·s. For the same compound, the viscosity (362.88 K, 39330 kPa) was 5.395 ± 0.22 mPa·s, the viscosity (362.88 K, 50130 kPa) was 5.747 ± 0.23 mPa·s and the viscosity (362.88 K, 50260 kPa) was 5.754 ± 0.23 mPa·s. The viscosity (362.88 K, 50300 kPa) was 5.756 ± 0.23 mPa·s, the viscosity (362.88 K, 50380 kPa) was 5.739 ± 0.23 mPa·s and the viscosity (362.88 K, 50430 kPa) was 5.763 ± 0.23 mPa·s. The viscosity (362.88 K, 67370 kPa) was 6.356 ± 0.26 mPa·s, the viscosity (362.88 K, 67660 kPa) was 6.331 ± 0.26 mPa·s and the viscosity (362.88 K, 67980 kPa) was 6.382 ± 0.26 mPa·s. The mass density (363.15 K, 100 kPa) was 1068.1 ± 4.3 kg/m3 and 1068 ± 4.3 kg/m3, the mass density (363.15 K, 660 kPa) was 1068.4 ± 4.3 kg/m3 and the mass density (363.15 K, 1120 kPa) was 1068.7 ± 4.3 kg/m3. For the same compound, the mass density (363.15 K, 1560 kPa) was 1068.9 ± 4.3 kg/m3, the mass density (363.15 K, 2130 kPa) was 1069.2 ± 4.3 kg/m3 and the mass density (363.15 K, 3050 kPa) was 1069.8 ± 4.3 kg/m3. For the same compound, the mass density (363.15 K, 5090 kPa) was 1070.9 ± 4.3 kg/m3, the mass density (363.15 K, 6990 kPa) was 1072 ± 4.3 kg/m3 and the mass density (363.15 K, 9980 kPa) was 1073.7 ± 4.3 kg/m3. For the same compound, the mass density (363.15 K, 14880 kPa) was 1076.4 ± 4.3 kg/m3, the mass density (363.15 K, 19680 kPa) was 1079 ± 4.3 kg/m3 and the mass density (363.15 K, 24720 kPa) was 1081.7 ± 4.3 kg/m3. The mass density (363.15 K, 29630 kPa) was 1084.2 ± 4.4 kg/m3, the mass density (363.15 K, 34490 kPa) was 1086.6 ± 4.4 kg/m3 and the mass density (363.15 K, 39430 kPa) was 1089 ± 4.4 kg/m3. The mass density (363.15 K, 44200 kPa) was 1091.4 ± 4.4 kg/m3, the mass density (363.15 K, 49240 kPa) was 1093.7 ± 4.4 kg/m3 and the mass density (363.15 K, 54100 kPa) was 1095.9 ± 4.4 kg/m3. It also gave a mass density (363.15 K, 59010 kPa) of 1098.1 ± 4.4 kg/m3, a mass density (363.15 K, 63880 kPa) of 1100.2 ± 4.4 kg/m3 and a mass density (363.15 K, 68830 kPa) of 1102.3 ± 4.4 kg/m3.
